Assay results published in US12667574B2, “Paraxanthine-based bioactive composition and method of use thereof” (PX ING, LLC, priority 2021, dated 2026).

Tests used:
[1] = tested on: dopamine (dopa); assay: Dopamine concentration (second Example 4); format: in vivo, rats; details: oral 14 days
Experimental: (§1) Distilled water was provided ad libitum. […] Ltd (Bangalore, India).
(§2) The following HED were used in this study: 50 mg paraxanthine, (ENFINITY™, Ingenious Ingredients, L.P Lewisville, TX, USA; rat dose: 5.141 mg/kg bw/day); 25 mg L-Theanine (rat dose: 2.570 mg/kg bw), and 50 mg paraxanthine plus 25 mg L-Theanine. 0.5% Carboxy Methyl Cellulose sodium was used as vehicle and the test item formulations were prepared daily. […] The last dose on day 14 was given 1 hour prior to testing.

[2] = tested on: male Swiss Albino Wistar rats; assay: Walter Morris Maze test (second Example 4, L-Theanine); format: in vivo; details: oral 14 days
Experimental: as §1, §2
The Walter Morris Maze test consisted of a circular pool in a room with geometric shapes on the wall serving as spatial cues. The pool, which is 70 cm in diameter and painted with black color, filled with 13 cm depth of 25±1° C. water. A platform (6 cm diameter) was placed into one quadrant of the pool and submerged 1 cm below the water surface. For the training, all rats were trained to locate the submerged platform in a constant location. The training day consisted of four trials. During training, a rat started at one of four starting points and allowed to swim until it located the platform or until 60 seconds had elapsed. The rat was allowed to remain on the platform for 15 seconds before being dried off and later was transferred to a holding cage. […] The animals were continuously trained 4 times at 4 starting points continued daily for 4 days, the main trial was conducted on the 15th & 16th day and the latency of escaping onto the platform was recorded.

[3] = tested on: glutathione (GSH); assay: Glutathione level (second Example 4); format: in vivo, rats; details: oral 14 days
Experimental: as §1, §2

[4] = tested on: male Swiss Albino mice; assay: Treadmill endurance test (first Example 4, L-Theanine); format: in vivo; details: oral once daily 28 days, HED 50 mg paraxanthine, 25 mg L-Theanine
Experimental: as §1
The following HED were used in this study: 50 mg paraxanthine, (ENFINITY™ Ingenious Ingredients, L.P Lewisville, TX, USA; mouse dose: 10.275 mg/kg bw/day); 25 mg L-Theanine (mouse dose: 5.137 mg/kg bw), and 50 mg paraxanthine plus 25 mg L-Theanine. 0.5% Carboxy Methyl Cellulose sodium was used as vehicle and the test item formulations were prepared daily.
During the treatment period, exercise training was completed using a motorized treadmill (Exer 3/6, Columbus Instruments international, OH, USA) at a moderate intensity of 20 cm/sec as maximal running speed, an incline of ten degrees and a shock intensity of 0.2 mA, for ten minutes. The speed of the treadmill was manually adjusted by increasing the belt speed by 5 cm/sec every two minutes throughout the total duration of ten minutes. All animals were adapted to this procedure daily 60 minutes after dosing for five days in a week during the treatment period. 1.3. Treadmill Endurance Test
Muscle endurance was accomplished on a motorized treadmill at a low to moderate intensity of 5-50 cm/sec as maximal running speed, an incline of ten degrees and a shock intensity of 0.2 mA, with the belt speed being increased by 5 cm/sec every two minutes until it reaches 50 cm/sec. Animals were subjected to the treadmill test until exhaustion.

[5] = tested on: brain derived neuro factor, BDNF; assay: BDNF level, neuroplasticity (second Example 4); format: in vivo, rats; details: oral 14 days
Experimental: as §1, §2

[6] = tested on: acetylcholine (Ach); assay: Acetylcholine concentration (second Example 4); format: in vivo, rats; details: oral 14 days
Experimental: as §1, §2

[7] = tested on: male Swiss Albino Wistar rats; assay: Walter Morris Maze test (Example 3); format: in vivo; details: oral 14 days
Experimental: Distilled water was provided ad libitum. […] Ltd (Bangalore, India). […] The last dose on day 14 was given 1 hour prior to testing. The Walter Morris Maze test consisted of a circular pool in a room with geometric shapes on the wall serving as spatial cues. The pool, which is 70 cm in diameter and painted with black color, filled with 13 cm depth of 25±1° C. water. A platform (6 cm diameter) was placed into one quadrant of the pool and submerged 1 cm below the water surface. For the training, all rats were trained to locate the submerged platform in constant location. The training day consisted of four trials. […] The rat was allowed to remain on the platform for 15 seconds before being dried off and later was transferred to a holding cage.

[8] = tested on: dopamine (dopa); assay: Dopamine concentration (Example 3); format: in vivo, rats; details: oral 14 days
Experimental: as §1
(§3) 0.5% Carboxy Methyl Cellulose sodium was used as vehicle and the test item formulations were prepared daily. […] The last dose on day 14 was given 1 hour prior to testing.

[9] = tested on: acetylcholine (Ach); assay: Acetylcholine concentration (Example 3); format: in vivo, rats; details: oral 14 days
Experimental: as §1, §3

[10] = tested on: brain derived neuro factor, BDNF; assay: BDNF level, neuroplasticity (Example 3); format: in vivo, rats; details: oral 14 days
Experimental: as §1, §3

[11] = tested on: glutathione (GSH); assay: Glutathione level (Example 3); format: in vivo, rats; details: oral 14 days
Experimental: as §1, §3

Q: `CCNC(=O)CC[C@H](N)C(=O)O` [L-Theanine, N5-ethyl-L-glutamine, reference compound] was tested. Which “dopamine (dopa) concentration” value ([1]; old rats) did it give?
A: Its value is 473.03 ± 6.05 ng/L.

Q: What about the “dopamine (dopa) concentration” value ([1]; young rats) of the same compound?
A: Its value is 528.18 ± 4.09 ng/L.

Q: What about the escape latency ([2]; old rats (16-month-old)) of the same compound?
A: Its escape latency is 44.67 ± 2.16 s.

Q: And the escape latency ([2]; young rats (8-week-old))?
A: Its escape latency is 38.33 ± 2.07 s.

Q: What about the “glutathione (GSH) level” value ([3]; old rats) of the same compound?
A: The value was 23.87 ± 0.45 µg/mL.

Q: What about the “glutathione (GSH) level” value ([3]; young rats) of the same compound?
A: Its value is 31.72 ± 0.53 µg/mL.

Q: And the “distance travelled during treadmill exercise” value [4]?
A: Its value is 295.17±6.11 m.

Q: What about the BDNF ([5]; old rats) of the same compound?
A: Its BDNF is 789.1 ± 2.03 pg/mL.

Q: What about the BDNF ([5]; young rats) of the same compound?
A: The BDNF was 866 ± 8.66 pg/mL.

Q: And the “acetylcholine (Ach) concentration” value ([6]; old rats)?
A: The value was 55.89±1.05 U/mL.

Q: And the “acetylcholine (Ach) concentration” value ([6]; young rats)?
A: Its value is 62.83±0.91 U/mL.

Q: For `C[N+](C)(C)CCOP(=O)([O-])OC[C@H](O)CO` [alpha-GPC, L-Alpha glycerylphosphorylcholine, reference compound], which escape latency ([7]; old rats (16-month-old)) is on record?
A: Its escape latency is 39.83 ± 0.98 s.

Q: What about the escape latency ([7]; young rats (8-week-old)) of the same compound?
A: The escape latency was 34.83 ± 1.33 s.

Q: And the “dopamine (dopa) concentration” value ([8]; old rats)?
A: Its value is 506.35 ± 2.82 ng/L.

Q: What about the “dopamine (dopa) concentration” value ([8]; young rats) of the same compound?
A: The value was 563.55 ± 7.98 ng/L.

Q: And the “acetylcholine (Ach) concentration” value ([9]; old rats)?
A: Its value is 56.89±1.76 U/mL.

Q: What about the “acetylcholine (Ach) concentration” value ([9]; young rats) of the same compound?
A: The value was 65.89±1.64 U/mL.

Q: What about the BDNF ([10]; old rats) of the same compound?
A: Its BDNF is 881.70 ± 10.41 µg/mL.

Q: And the BDNF ([10]; young rats)?
A: Its BDNF is 881.70 ± 10.41 µg/mL.

Q: What about the “glutathione (GSH) level” value ([11]; old rats) of the same compound?
A: Its value is 24.72 ± 0.48 µg/mL.

Q: And the “glutathione (GSH) level” value ([11]; young rats)?
A: The value was 31.72 ± 0.53 µg/mL.
